A word on the IC50: it is the concentration at which inhibition is half-maximal. Higher therefore signals weaker potency.

The experiment deals with phosphorylated AKT Ser473 (pAKT S473), mTORC2 activity, PC3 cells. The experiment is described as follows: mTOR target engagement assay, immunofluorescent cell-based, pAKT S473 readout (mTORC2 activity). As for the experimental part: The target engagement of mTOR kinase inhibitors was evaluated using an immunofluorescent cell-based assay. In this assay, inhibition of mTORC1 activity was measured by the reduction in the level of phosphorylated 4E-BP1^[…] (p4E-BP1 Thr37/46), and inhibition of mTORC2 activity was measured by the reduction of phosphorylated AKT^Ser473 (pAKT S473).
PC3 cells (prostate tumor cell-line that contains a mutation in the tumor suppressor PTEN, that promotes the phosphorylation and activation of AKT and 4E-BP1) were used in the immunofluorescence assay. […] PC3 cells were then treated with 40 μl of the serially diluted test compounds (in 5% fetal bovine serum, F12 medium containing 0.25% DMSO) for ninety minutes at 37° C. The test compound solution was removed, and the plates were washed gently two times with 25 μl phosphate buffered saline (PBS). […] 5% Goat serum in PBS/0.3% Triton was used to block non-specific binding (60 minutes).
The primary antibodies targeting pAKT S473 and p4E-BP1 Thr37/46 were diluted into PBS/0.3% Triton and incubated with the cells overnight at 4° C. […] Plates were washed three times with PBS/0.1% Tween 20 before adding the secondary antibody at a 1:200 dilution.
Finally, the plates were washed three times with PBS/0.1% Tween 20 and the fluorescent intensity was read using an Analyst HT from Molecular Devices.

Where [1] appears, read: Homo sapiens, PC-3, PC3 cells, compound treatment ninety minutes at 37° C.
Setting [2] is: Homo sapiens, PC-3, Table 6-1, PC3 cells.
The mark [3] stands for this setting: Homo sapiens, PC-3, Table 3-1, PC3 cells.

Structures are written as SMILES.

Turning to `CC(=O)c1c(N2CC3CCC(C2)N3C(=O)c2nnc[nH]2)nc2c(-c3ccc(-c4ccccc4)nc3)cnn2c1N` [Compound 8.1, 1-(5-(8-(4H-1,2,4-triazole-3-carbonyl)-3,8-diazabicyclo[3.2.1]octan-3-yl)-7-amino-3-(6-phenylpyridin-3-yl)pyrazolo[1,5-a]pyrimidin-6-yl)ethanone], under “Homo sapiens, PC-3, PC3 cells”, the IC50 is 100 to 1000 nM. Take `Cc1ccc(-c2cnn3c(N)c(C4CC4)c([C@@H]4C[C@H]5CC[C@@H](C4)N5C(=O)c4nnc[nH]4)nc23)cn1` [Compound 4.16, ((1R,3s,5S)-3-(7-amino-6-cyclopropyl-3-(6-methylpyridin-3-yl)pyrazolo[1,5-a]pyrimidin-5-yl)-8-azabicyclo[3.2.1]octan-8-yl)(4H-1,2,4-triazol-3-yl)methanone]: the IC50 under setting [1] lay in the range of 100 to 1000 nM. `CC(=O)c1c([C@@H]2C[C@H]3CC[C@@H](C2)N3C(=O)[C@@H](C)O)nc2c(-c3ccc(-c4nccs4)nc3)cnn2c1N` [Compound 1.1.34, (R)-1-((1R,3S,5S)-3-(6-acetyl-7-amino-3-(6-(thiazol-2-yl)pyridin-3-yl)pyrazolo[1,5-a]pyrimidin-5-yl)-8-azabicyclo[3.2.1]octan-8-yl)-2-hydroxypropan-1-one]: under setting [1], the IC50 lay in the range of 100 to 1000 nM.

Consider `CS(=O)(=O)c1c([C@@H]2C[C@H]3CC[C@@H](C2)N3C(=O)CO)nc2c(-c3ccc(C4(O)CCC4)nc3)cnn2c1N` [Compound 7.28, 1-((1R,3s,5S)-3-(7-amino-3-(6-(1-hydroxycyclobutyl)pyridin-3-yl)-6-(methylsulfonyl)pyrazolo[1,5-a]pyrimidin-5-yl)-8-azabicyclo[3.2.1]octan-8-yl)-2-hydroxyethanone], for which the IC50 (Table 7-2, PC3 cells) lay within 100 to 1000 nM. `Cn1cnc(-c2ccc(-c3cnn4c(N)c(C5CC5)c([C@@H]5C[C@H]6CC[C@@H](C5)N6C(=O)c5nnc[nH]5)nc34)cn2)c1` [Compound 4.23, ((1R,3a,5S)-3-(7-amino-6-cyclopropyl-3-(6-(1-methyl-1H-imidazol-4-yl)pyridin-3-yl)pyrazolo[1,5-a]pyrimidin-5-yl)-8-azabicyclo[3.2.1]octan-8-yl)(4H-1,2,4-triazol-3-yl)methanone] returned an IC50 under setting [1] of 1000 to 10000 nM. Under setting [1], `CC(=O)c1c([C@@H]2C[C@H]3CC[C@@H](C2)N3C(=O)[C@@H](C)O)nc2c(-c3ccc(-c4ccc(F)cc4)nc3)cnn2c1N` [Compound 1.1.158, (R)-1-((1R,3S,5S)-3-(6-acetyl-7-amino-3-(6-(4-fluorophenyl)pyridin-3-yl)pyrazolo[1,5-a]pyrimidin-5-yl)-8-azabicyclo[3.2.1]octan-8-yl)-2-hydroxypropan-1-one] yielded an IC50 of 100 to 1000 nM. As for `CC(=O)c1c([C@@H]2C[C@H]3CC[C@@H](C2)N3C(=O)[C@H](C)O)nc2c(-c3ccc(-c4ncc[nH]4)nc3)cnn2c1N` [Compound 6.8, (S)-1-((1R,3R,5S)-3-(3-(6-(1H-imidazol-2-yl)pyridin-3-yl)-6-acetyl-7-aminopyrazolo[1,5-a]pyrimidin-5-yl)-8-azabicyclo[3.2.1]octan-8-yl)-2-hydroxypropan-1-one], the IC50 under setting [2] is 1 to 100 nM. As to `CC(=O)c1c([C@@H]2C[C@H]3CC[C@@H](C2)N3C(=O)CO)nc2c(-c3cnc(-c4ncc[nH]4)c(F)c3)cnn2c1N` [Compound 6.28, 1-((1R,3s,5S)-3-(6-acetyl-7-amino-3-(5-fluoro-6-(1H-imidazol-2-yl)pyridin-3-yl)pyrazolo[1,5-a]pyrimidin-5-yl)-8-azabicyclo[3.2.1]octan-8-yl)-2-hydroxyethanone], under setting [2], the IC50 is 1 to 100 nM. For `CC(=O)c1c([C@@H]2C[C@H]3CC[C@@H](C2)N3C(=O)c2ccn[nH]2)nc2c(-c3ccc(-c4ccc(F)cc4)nc3)cnn2c1N` [Compound 1.1.157, 1-(5-((1R,3s,5S)-8-(1H-pyrazole-5-carbonyl)-8-azabicyclo[3.2.1]octan-3-yl)-7-amino-3-(6-(4-fluorophenyl)pyridin-3-yl)pyrazolo[1,5-a]pyrimidin-6-yl)ethanone], under setting [1], the IC50 was 1 to 100 nM.

In turn, `CC(=O)c1c(N2CC3CCC2CN3C(=O)c2nnc[nH]2)nc2c(-c3ccc(-c4ccccc4)nc3)cnn2c1N` (stereo not drawn) [Compound 8.3, 1-(5-(5-(4H-1,2,4-triazole-3-carbonyl)-2,5-diazabicyclo[2.2.2]octan-2-yl)-7-amino-3-(6-phenylpyridin-3-yl)pyrazolo[1,5-a]pyrimidin-6-yl)ethanone] had an IC50 (Homo sapiens, PC-3, PC3 cells) of 100 to 1000 nM. As for `CS(=O)(=O)c1c([C@@H]2C[C@H]3CC[C@@H](C2)N3CC(N)=O)nc2c(-c3ccc(-c4ccccc4)nc3)cnn2c1N` [Compound 8.92, 2-((1R,3s,5S)-3-(7-amino-6-(methylsulfonyl)-3-(6-phenylpyridin-3-yl)pyrazolo[1,5-a]pyrimidin-5-yl)-8-azabicyclo[3.2.1]octan-8-yl)acetamide], under “Homo sapiens, PC-3, PC3 cells”, the IC50 was 1000 to 10000 nM. `CC(=O)c1c([C@@H]2C[C@H]3CC[C@@H](C2)N3C(=O)c2cnn[nH]2)nc2c(-c3ccc(C4(O)CCC4)nc3)cnn2c1N` [Compound 7.19, 1-(5-((1R,3s,5S)-8-(1H-1,2,3-triazole-5-carbonyl)-8-azabicyclo[3.2.1]octan-3-yl)-7-amino-3-(6-(1-hydroxycyclobutyl)pyridin-3-yl)pyrazolo[1,5-a]pyrimidin-6-yl)ethanone]: the half-inhibitory concentration (IC50) under setting [1] lay in the range of 100 to 1000 nM.

Under setting [2], `COCCOCC(=O)N1[C@@H]2CC[C@H]1C[C@H](c1nc3c(-c4ccc(-c5ncc[nH]5)nc4)cnn3c(N)c1C(C)=O)C2` [Compound 6.13, 1-((1R,3s,5S)-3-(3-(6-(1H-imidazol-2-yl)pyridin-3-yl)-6-acetyl-7-aminopyrazolo[1,5-a]pyrimidin-5-yl)-8-azabicyclo[3.2.1]octan-8-yl)-2-(2-methoxyethoxy)ethanone] yielded an IC50 of 1 to 100 nM. `CC(=O)c1c(N2CC3CCC(C2)N3C(=O)[C@@H](C)O)nc2c(-c3ccc(-c4ccccc4)nc3)cnn2c1N` [Compound 8.2, (2R)-1-(3-(6-acetyl-7-amino-3-(6-phenylpyridin-3-yl)pyrazolo[1,5-a]pyrimidin-5-yl)-3,8-diazabicyclo[3.2.1]octan-8-yl)-2-hydroxypropan-1-one]: the IC50 (Homo sapiens, PC-3, PC3 cells) lay within 100 to 1000 nM.

In the case of `CC(=O)c1c([C@@H]2C[C@H]3CC[C@@H](C2)N3C(=O)c2cc(N)n[nH]2)nc2c(-c3ccc(-c4ncc[nH]4)nc3)cnn2c1N` [Compound 6.17, 1-(3-(6-(1H-imidazol-2-yl)pyridin-3-yl)-7-amino-5-((1R,3s,5S)-8-(3-amino-1H-pyrazole-5-carbonyl)-8-azabicyclo[3.2.1]octan-3-yl)pyrazolo[1,5-a]pyrimidin-6-yl)ethanone], the IC50 under setting [2] was 1 to 100 nM.

Where the note is “Homo sapiens, PC-3, PC3 cells”, `CCOC(=O)Nc1ccc(-c2cnn3c(N)c(C(C)=O)c([C@@H]4C[C@H]5CC[C@@H](C4)N5C(=O)CO)nc23)cn1` [Compound 8.77, ethyl 5-(6-acetyl-7-amino-5-((1R,3s,5S)-8-(2-hydroxyacetyl)-8-azabicyclo[3.2.1]octan-3-yl)pyrazolo[1,5-a]pyrimidin-3-yl)pyridin-2-ylcarbamate] showed a half-maximal inhibitory concentration (IC50) of 100 to 1000 nM. Consider `CC(=O)c1c(N2CC3CCC2CN3C(=O)[C@@H](C)O)nc2c(-c3ccc(-c4ccccc4)nc3)cnn2c1N` (stereo partly drawn) [Compound 8.4, (2R)-1-(5-(6-acetyl-7-amino-3-(6-phenylpyridin-3-yl)pyrazolo[1,5-a]pyrimidin-5-yl)-2,5-diazabicyclo[2.2.2]octan-2-yl)-2-hydroxypropan-1-one], for which the IC50 (Homo sapiens, PC-3, PC3 cells) lay within 1000 to 10000 nM. Regarding `CC(=O)c1c([C@@H]2C[C@H]3CC[C@@H](C2)N3C(=O)CO)nc2c(-c3cnc(-c4ncc[nH]4)c(C)c3)cnn2c1N` [Compound 6.33, 1-((1R,3s,5S)-3-(3-(6-(1H-imidazol-2-yl)-5-methylpyridin-3-yl)-6-acetyl-7-aminopyrazolo[1,5-a]pyrimidin-5-yl)-8-azabicyclo[3.2.1]octan-8-yl)-2-hydroxyethanone], the IC50 under setting [2] lay in the range of 1000 to 10000 nM. Under setting [3], `C[C@@H](O)C(=O)N1[C@@H]2CC[C@H]1C[C@H](c1nc3c(-c4ccc(-c5ccc(F)cc5)nc4)cnn3c(N)c1S(C)(=O)=O)C2` [Compound 3.122, (R)-1-((1R,3S,5S)-3-(7-amino-3-(6-(4-fluorophenyl)pyridin-3-yl)-6-(methylsulfonyl)pyrazolo[1,5-a]pyrimidin-5-yl)-8-azabicyclo[3.2.1]octan-8-yl)-2-hydroxypropan-1-one] registered an IC50 of 100 to 1000 nM. Under setting [3], `CS(=O)(=O)c1c([C@@H]2C[C@H]3CC[C@@H](C2)N3C(=O)c2ccn[nH]2)nc2c(-c3ccc(-c4ccc(F)cc4)nc3)cnn2c1N` [Compound 3.121, ((1R,3s,5S)-3-(7-amino-3-(6-(4-fluorophenyl)pyridin-3-yl)-6-(methylsulfonyl)pyrazolo[1,5-a]pyrimidin-5-yl)-8-azabicyclo[3.2.1]octan-8-yl)(1H-pyrazol-5-yl)methanone] returned an IC50 of 1 to 100 nM. Turning to `Nc1ncc(-c2cnn3c(N)cc([C@@H]4C[C@H]5CC[C@@H](C4)N5C(=O)c4nnc[nH]4)nc23)cn1` [Compound 8.88, ((1R,3s,5S)-3-(7-amino-3-(2-aminopyrimidin-5-yl)pyrazolo[1,5-a]pyrimidin-5-yl)-8-azabicyclo[3.2.1]octan-8-yl)(4H-1,2,4-triazol-3-yl)methanone], the IC50 (Homo sapiens, PC-3, PC3 cells) was over 10000 nM.

Source of the values: patent US9227971B2, “Pyrazolo[1,5-a]pyrimidine compounds as mTOR inhibitors” (Merck Sharp & Dohme Corp., priority 2010, dated 2016).
